What was measured:
[1] = target: T1, human sphingosine-1-phosphate receptor 1 (S1P1) (Homo sapiens, UniProt P21453); experiment: β-Arrestin2 recruitment assay (PathHunter), S1P1 CHO-K1 cells; assay type: cell-based; conditions: for Emax: efficacy normalized to maximum efficacy of fingolimod, read-out: hS1P1 B-arrestin2 SPAN; for EC50: β-arrestin2 recruitment, read-out: hS1P1 B-arrestin2 pEC50 (converted)
Procedure: Stable clonal Chinese hamster ovary K1 (CHO-K1) cells co-expressing EA-β-arrestin2 and the human sphingosine-1-phosphate receptor 1 (NM_001400, S1P1) with a C-terminal Prolink™ tag were purchased from DiscoverX corporation (Cat #: 93-0207C2).
Cell lines were cultured in AssayComplete™ Media 6 (DiscoverX Corporation, Cat #: 920018GF2) at 37° C. and 5% CO2 in a humidified CO2 and temperature-controlled incubator. To begin assay plating, cells were washed with Dulbecco's phosphate buffered saline (CellGro, Cat #: 21-031-CV) and lifted from the culturing flask by incubation (37° C., 5 min) with CellStripper (Cellgro, Cat #: 25-056-CI). […] Plated cells were incubated overnight at 37° C. and 5% CO2 in a humidified CO2 and temperature-controlled incubator.
Agonist-promoted β-arrestin2 recruitment to the sphingosine-1-phosphate 1 receptor was determined using the β-arrestin PathHunter® Detection kit (DiscoverX Corporation, Cat #: 93-0001). […] In cells that stably express these fusion proteins, stimulation with a cognate agonist results in the interaction of β-arrestin2 and the Prolink™-tagged GPCR. This allows the complementation of the two β-galactosidase fragments and results in the formation of a functional enzyme with β-galactosidase activity. […] Following a 60 minute incubation at 37° C. and 5% CO2 in a humidified CO2 and temperature-controlled incubator, the components of the β-arrestin PathHunter® Detection kit were added as per the manufacturer's instructions. After an hour incubation at room temperature, plates were analyzed by a BMG PheraStar microplate reader.
These values are normalized to fingolimod, a known agonist of the sphingosine-1-phosphate 1 receptor.
Target sequence in this assay (P21453 whole entry): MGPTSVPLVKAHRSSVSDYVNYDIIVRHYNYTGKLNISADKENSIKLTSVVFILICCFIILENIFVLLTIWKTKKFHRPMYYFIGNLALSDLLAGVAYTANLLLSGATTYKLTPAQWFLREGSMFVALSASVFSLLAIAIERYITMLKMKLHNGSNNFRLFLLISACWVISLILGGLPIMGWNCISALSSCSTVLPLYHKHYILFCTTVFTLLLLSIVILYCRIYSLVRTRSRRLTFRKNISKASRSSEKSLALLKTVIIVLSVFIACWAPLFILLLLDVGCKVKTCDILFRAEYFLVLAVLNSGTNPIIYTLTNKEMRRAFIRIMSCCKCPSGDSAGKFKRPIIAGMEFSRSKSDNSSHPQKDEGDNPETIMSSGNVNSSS
Target sequence in this assay (P32121 whole entry partner): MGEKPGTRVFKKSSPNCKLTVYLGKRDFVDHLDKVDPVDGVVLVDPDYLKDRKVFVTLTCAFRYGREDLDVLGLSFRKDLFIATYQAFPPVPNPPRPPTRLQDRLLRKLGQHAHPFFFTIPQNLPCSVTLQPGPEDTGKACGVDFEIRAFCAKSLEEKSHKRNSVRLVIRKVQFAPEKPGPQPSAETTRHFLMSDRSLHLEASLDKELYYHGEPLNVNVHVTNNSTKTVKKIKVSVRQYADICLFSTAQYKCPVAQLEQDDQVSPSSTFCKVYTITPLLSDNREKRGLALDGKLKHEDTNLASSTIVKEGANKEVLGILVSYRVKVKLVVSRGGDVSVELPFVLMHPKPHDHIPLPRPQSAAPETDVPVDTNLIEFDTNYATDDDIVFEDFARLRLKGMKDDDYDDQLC

[2] = target: T1, human sphingosine-1-phosphate receptor 1 (S1P1); experiment: Inhibition of cAMP production (HTRF cAMP HiRange), S1P1 CHO-K1 cells; assay type: cell-based; conditions: for Emax: CHO-K1, efficacy normalized to maximum efficacy of fingolimod, read-out: hS1P1 CAMP SPAN; for EC50: read-out: hS1P1 CAMP pEC50 (converted)
Outline: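 CHO-K1 cells co-expressing human S1P1 (C-terminal ProLink tag) and EA-β-arrestin2, plated overnight; after 30 min compound incubation at 37 °C, intracellular cAMP measured by HTRF TR-FRET following 1 h at room temperature. Values normalized to fingolimod.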
Target sequence in this assay (P21453 whole entry): as the sequence (P21453 whole entry) above

[3] = inhibition of cAMP production, S1P1
[4] = CHO-K1, β-arrestin2 recruitment
[5] = inhibition of cAMP production, potency

SMILES | Emax ([1]; CHO-K1) [%] | EC50 ([1]; S1P1) [nM] | Emax [2] [%] | EC50 [2, 3] [nM] | Emax [1, 4] [%] | EC50 ([1]; potency) [nM] | Emax ([2]; inhibition of cAMP production) [%] | EC50 [2, 5] [nM]
CC(C)Nc1ccc(-c2nnc(-c3ccc4[nH]c(=O)oc4c3)o2)cc1C#N [Compound 484, 5-[5-(2-oxo-2,3-dihydro-1,3-benzoxazol-6-yl)-1,3,4-oxadiazol-2-yl]-2-[(propan-2-yl)amino]benzonitrile] | > 75 | < 10000 | > 75 | < 316 | – | – | – | –
COc1ccccc1-c1nnc(-c2ccc3c(c2)c(=O)on3C)o1 [Compound 340, 5-[5-(2-methoxyphenyl)-1,3,4-oxadiazol-2-yl]-1-methyl-1,3-dihydro-2,1-benzoxazol-3-one] | – | – | – | – | < 75 | > 10000 | < 75 | > 316
CCC1(CC)CC(=O)c2cc(-c3nc(-c4cncc(C(F)(F)F)c4)no3)ccc2O1 [Compound 557, 2,2-diethyl-6-(3-(5-(trifluoromethyl)pyridin-3-yl)-1,2,4-oxadiazol-5-yl)chroman-4-one] | < 75 | < 10000 | > 75 | > 316 | – | – | – | –
CCC1(CC)CC(=O)c2cc(-c3nsc(-c4ccccc4OC)n3)ccc2O1 [Compound 222, 2,2-diethyl-6-(5-(2-methoxyphenyl)-1,2,4-thiadiazol-3-yl)chroman-4-one] | – | – | – | – | < 75 | < 10000 | > 75 | > 316
CCC1(CC)CC(=O)c2cc(-c3nc(-c4cncc(S(N)(=O)=O)c4)no3)ccc2O1 [Compound 603, 5-(5-(2,2-diethyl-4-oxochroman-6-yl)-1,2,4-oxadiazol-3-yl)pyridine-3-sulfonamide] | > 75 | < 10000 | > 75 | < 316 | – | – | – | –
CC(C)n1ccc2cc(-c3nc(-c4ccccc4C(F)(F)F)cs3)cnc21 [Compound 408, 2-(1-isopropylpyrrolo[2,3-b]pyridin-5-yl)-4-[2-(trifluoromethyl)phenyl] thiazole] | < 75 | > 10000 | > 75 | > 316 | – | – | – | –
CCC1(CC)CC(=O)c2cc(-c3nc(-c4ccnc(C(=O)NC)c4)no3)ccc2O1 [Compound 592, 4-(5-(2,2-diethyl-4-oxochroman-6-yl)-1,2,4-oxadiazol-3-yl)-N-methylpicolinamide] | > 75 | > 10000 | < 75 | > 316 | – | – | – | –
CC(C)n1nnc2cc(-c3ncc(-c4ccccc4Br)s3)ccc21 [Compound 220, 5-(2-bromophenyl)-2-(1-isopropylbenzo-triazol-5-yl)thiazole] | – | – | – | – | < 75 | > 10000 | < 75 | > 316
N#Cc1cc(-c2nnc(-c3ccc4[nH]c(=O)oc4c3)o2)ccc1NCC1CC1 [Compound 486, 2-[(cyclopropyl-methyl)amino]-5-[5-(2-oxo-2,3-dihydro-1,3-benzoxazol-6-yl)-1,3,4-oxadiazol-2-yl]benzonitrile] | > 75 | > 10000 | < 75 | < 316 | – | – | – | –
CCC1(CC)CC(=O)c2cc(-c3nc(-c4ccc(C(F)(F)F)nc4)no3)ccc2O1 [Compound 548, 2,2-diethyl-6-(3-(6-(trifluoromethyl)pyridin-3-yl)-1,2,4-oxadiazol-5-yl)chroman-4-one] | < 75 | > 10000 | < 75 | > 316 | – | – | – | –
CCC1(CC)CC(=O)c2cc(-c3nc(-c4ccccc4OC)no3)ccc2O1 [Compound 268, 2,2-diethyl-6-[3-(2-methoxyphenyl)-1,2,4-oxadiazol-5-yl]chroman-4-one] | – | – | – | – | > 75 | < 10000 | > 75 | < 316
O=C1CNc2ccc(-c3nc(-c4cn[nH]c4)no3)cc2N1 [Compound 645, 7-[3-(1H-pyrazol-4-yl)-1,2,4-oxadiazol-5-yl]-1,2,3,4-tetrahydro-quinoxalin-2-one] | < 75 | > 10000 | > 75 | > 316 | – | – | – | –
CCC1(CC)CC(=O)c2cc(-c3nc(-c4ccccc4O)no3)ccc2O1 [Compound 187, 2,2-diethyl-6-[3-(2-hydroxyphenyl)-1,2,4-oxadiazol-5-yl]chroman-4-one] | – | – | – | – | – | – | – | > 316

Other lines, results leading:

Emax ([1]; CHO-K1) [%] | EC50 ([1]; S1P1) [nM] | Emax [2] [%] | EC50 [2, 3] [nM] | Emax [1, 4] [%] | EC50 ([1]; potency) [nM] | Emax ([2]; inhibition of cAMP production) [%] | EC50 [2, 5] [nM] | SMILES
– | – | – | – | < 75 | > 10000 | < 75 | > 316 | CCCn1nnc2cc(-c3nc(-c4ccccc4)no3)ccc21 [Compound 160, 5-(3-phenyl-1,2,4-oxadiazol-5-yl)-1-propyl-1H-1,2,3-benzotriazole]
– | – | – | – | < 75 | > 10000 | < 75 | > 316 | Cc1cnc(-c2noc(-c3ccc4c(c3)nnn4C(C)C)n2)cn1 [Compound 157, 5-[3-(5-methylpyrazin-2-yl)-1,2,4-oxadiazol-5-yl]-1-(propan-2-yl)-1H-1,2,3-benzotriazole]
– | – | – | – | < 75 | > 10000 | < 75 | > 316 | Cc1ccc(-c2nc(-c3ccc4c(c3)nnn4C3CCCC3)no2)cc1 [Compound 235, 3-(1-cyclopentyl-1H-benzo[d][1,2,3]triazol-5-yl)-5-(p-tolyl)-1,2,4-oxadiazole]
– | – | – | – | < 75 | > 10000 | < 75 | > 316 | c1ccc(-c2noc(-c3ccc4[nH]nnc4c3)n2)cc1 [Compound 113, 5-(3-phenyl-1,2,4-oxadiazol-5-yl)-1H-1,2,3-benzotriazole]
> 75 | < 10000 | > 75 | < 316 | – | – | – | – | CC(C)n1nnc2cc(-c3nc(-c4sccc4Cl)co3)ccc21 [Compound 463, 5-[4-(3-chlorothiophen-2-yl)-1,3-oxazol-2-yl]-1-(propan-2-yl)-1H-1,2,3-benzotriazole]
< 75 | > 10000 | < 75 | > 316 | – | – | – | – | CCC1(CC)CC(=O)c2cc(-c3nc(-c4ccc5ncccc5c4)no3)ccc2O1 [Compound 521, 2,2-diethyl-6-(3-(quinolin-6-yl)-1,2,4-oxadiazol-5-yl)chroman-4-one]
– | – | – | – | – | < 10000 | – | – | CCn1nnc2cc(-c3noc(-c4ccccc4Br)n3)ccc21 [Compound 2, 5-(2-bromophenyl)-3-(1-ethyl-1H-benzo[d][1,2,3]triazol-5-yl)-1,2,4-oxadiazole]
– | – | – | – | – | – | – | > 316 | CC1(C)CC(=O)c2cc(-c3nc(-c4ccncc4)no3)ccc2O1 [Compound 291, 2,2-dimethyl-6-[3-(pyridin-4-yl)-1,2,4-oxadiazol-5-yl]-3,4-dihydro-2H-1-benzopy ran-4-one]
– | – | – | – | – | – | – | > 316 | CC(C)n1nnc2cc(-c3noc(-c4cnccn4)n3)ccc21 [Compound 78, 3-(1-isopropyl-1H-benzo[d][1,2,3]triazol-5-yl)-5-(pyrazin-2-yl)-1,2,4-oxadiazole]
– | – | – | – | – | – | – | > 316 | COc1cccc(F)c1-c1noc(-c2ccc3c(c2)nnn3C(C)C)n1 [Compound 260, 3-(2-fluoro-6-methoxy-phenyl)-5-(1-isopropylbenzo-triazol-5-yl)-1,2,4-oxadiazole]
– | – | – | – | – | – | – | > 316 | CC(C)n1ccc2cc(-c3nc(-c4ccccc4O)no3)ccc21 [Compound 323, 2-(5-(1-isopropyl-1H-indol-5-yl)-1,2,4-oxadiazol-3-yl)phenol]
– | – | – | > 316 | – | – | – | – | CC(C)(O)Cn1nnc2cc(-c3nc(-c4ccncc4C(F)(F)F)no3)ccc21 [Compound 460, 2-methyl-1-(5-{3-[3-(trifluoromethyl)pyridin-4-yl]-1,2,4-oxadiazol-5-yl}-1H-1,2,3-benzotriazol-1-yl)propan-2-ol]
– | – | – | > 316 | – | – | – | – | CC(C)n1nnc2cc(-c3nc(-c4cccs4)co3)ccc21 [Compound 459, 1-(propan-2-yl)-5-[4-(thiophen-2-yl)-1,3-oxazol-2-yl]-1H-1,2,3-benzotriazole]
– | – | – | > 316 | – | – | – | – | Cc1occc1-c1noc(-c2ccc3c(c2)nnn3CC(C)(C)O)n1 [Compound 492, 2-methyl-1-{5-[3-(2-methylfuran-3-yl)-1,2,4-oxadiazol-5-yl]-1H-1,2,3-benzotriazol-1-yl}propan-2-ol]
– | – | – | < 316 | – | – | – | – | COc1ccc2oc(-c3ccc4c(c3)nnn4CC(C)C)nc2c1 [Compound 451, 2-(1-isobutyl-1H-benzo[d][1,2,3]triazol-5-yl)-5-methoxy-benzo[d]oxazole]
– | – | – | – | – | – | – | < 316 | Brc1ccccc1-c1noc(-c2ccc3c(c2)nnn3C2CC2)n1 [Compound 83, 5-[3-(2-bromophenyl)-1,2,4-oxadiazol-5-yl]-1-cyclopropyl-1H-1,2,3-benzotriazole]

Source: patent US20230114241A1, “METHODS OF TREATING EPILEPSY USING THE SAME” (Trevena, Inc., priority 2019, published 2023)
